# Results taken from patent publication US9937227B2, “Humanin, analogs and cancer treatment methods and uses thereof” (LOS ANGELES BIOMEDICAL RESEARCH INSTITUTE AT HARBOR-UCLA …, priority 2014, dated 2018).
# Read-outs that look alike come from different tables or passages of the source.
# How the values were obtained:
# testosterone = conditions: with or without EDS pre-treatment
# 4T1 mammary cancer = assay: 4T1 mouse mammary cancer model, tumor size and weight; conditions: in vivo
# Procedure: A mouse mammary cancer model was used which utilizes 4T1 cells transfected with the luciferase gene. Growth and size of 4T1 mammary tumors were detected by bioluminescence imaging (IVIS Luminia II, Perkin Elmer, Waltham, Mass.). Mice (n=5 to 7 per group) were inoculated with 1×10^6 4T1 cells into the right third mammary gland, and 7 days later they were left untreated or treated with HNG (5 mg/kg/day IP), CP (100 mg/Kg single IP) or HNG+CP for 14 days. Bioluminescence imaging was conducted at days 7 and 12. Animals were sacrificed and tumors were removed on day 14 after the start of treatment. Mammary tumors were smaller in CP and CP+HNG groups compared to the untreated and HNG-treated animals (Data images not shown).
# germ cells = conditions: HNG 5 mg/kg/BW IP or CP 200 mg/kg/BW IP, 24 hours
# Procedure: To examine the protective effects of HNG on germ cells, adult mice were treated with vehicle (control); HNG (5 mg/kg/BW, intraperitoneal injection IP); CP (200 mg/kg/BW, IP); and CP+HNG for 24 hours.
# [1] = tested on: Ser727-phosphorylated STAT3; assay: STAT3 phosphorylation in testis by western blot; type: in vivo, mouse; conditions: testis homogenates; single agent
# Procedure: For the HN analog experiments, male mice were divided into seven groups (n=4-5 per group) and received one of the following treatments and sacrificed after 24 hours: 1) vehicle (control); 2) a single intra-peritoneal (IP) injection of HN peptide [HN, 40 mg/Kg body weight (BW)]; 3) a single IP injection of CP (CP, 200 mg/Kg BW); 4) IP injection of CP and HN (CP+HN); 5) a single IP injection of each HN analog (HNG 5 mg/Kg BW, HNG-F6A 5 mg/Kg BW, HN-S7A 40 mg/Kg BW, HN-C8P 40 mg/Kg BW, or HN-L12A 40 mg/Kg BW); 6) IP injection of CP and each HN analog (CP+HNG, HNG-F6A, HN-S7A, HN-C8P, or HN-L12A); and 7) IP injection of CP+HN+HN analog (HN-S7A, HN-C8P, or HN-L12A; to assess whether the analogs has enhancing or inhibitory effect on HN).
# To facilitate testicular fixation by using a whole-body perfusion technique, all animals were injected with heparin (130 IU/100 g BW, IP) 15 min before a lethal injection of sodium pentobarbital (200 mg/kg BW, IP) (Lue Y H, et al., 1999). One testis was removed and weighed after perfusion with saline. Portions of testicular parenchyma were snap frozen in liquid nitrogen, and stored at −80 C for Western blotting. The other testis was fixed by vascular perfusion with Bouin's solution, and processed with routine paraffin embedding for in situ detection of apoptosis.
# Western blotting was performed as described previously (Jia Y, et al., 2009). […]
# male germ cells = conditions: 24 hours
# Procedure: Young adult mice (12-13 weeks) were randomly divided into 4 groups with 4 or 5 mice per group and received an IP injection: control (Con) (saline), HN (40 mg/Kg BW), CP (200 mg/Kg BW), and the combination of CP+HN. These experiments were repeated four times. In the CP+HN group, mice received an injection of HN followed by an injection of CP about 15 minutes later. Twenty-four hours after injections animals were sacrificed using 5% pentobarbital (200 mg/kg BW) IP injection. Blood was collected and one testis was removed, weighed and frozen in liquid nitrogen. The mouse was next perfused with saline and then subsequently perfuse-fixed with Bouin's solution as previously described and apoptosis was assessed by TUNEL assay (Lue, et al., 2009).
# For detection of apoptosis in testicular sections, the paraffin embedded testis tissue was cut into 5 micron sections and stained with the TdT-mediated dUTP nick-end labeling assay (TUNEL Apoptosis Detection Kit, Millipore, Billerica, Mass.) to detect apoptosis of germ cells in the testis (Lue, et al., 2009). Testicular sections assayed by TUNEL were examined under a light microscope and the apoptotic germ cells were blindly and manually counted. The seminiferous tubules in the testis section under the microscope were grouped as stages IX-IV (early-late stages of spermatogenesis) and V-VIII (middle stages of spermatogenesis). Germ cell apoptosis was quantified as the number of seminiferous tubules containing apoptotic spermatogonia, spermatoctyes, round spermatids and spermatozoa per 100 seminiferous tubules (Drumond, et al., 2011).
# ovaries = type: in vivo; conditions: HNG 5 mg/kg/day IP or CP 100 mg/Kg single IP, day 14
# Procedure: A mouse mammary cancer model was used which utilizes 4T1 cells transfected with the luciferase gene. Growth and size of 4T1 mammary tumors were detected by bioluminescence imaging (IVIS Luminia II, Perkin Elmer, Waltham, Mass.). Mice (n=5 to 7 per group) were inoculated with 1×10^6 4T1 cells into the right third mammary gland, and 7 days later they were left untreated or treated with HNG (5 mg/kg/day IP), CP (100 mg/Kg single IP) or HNG+CP for 14 days. Animals were sacrificed and both ovaries were removed from each mouse on day 14 after the start of treatment. Serial 5-micrometer sections were made. Every 5th section was examined and the number of primordial, primary, and secondary follicles counted (Kim S Y, et al., 2013; Bristol-Gould S K, et al., 2006; Roti Roti E C, et al., 2012). In addition, TUNEL staining for apoptotic cells and oocytes was quantified (Perez G I, et al., 1997; Ben-Aharon I, et al., 2010).
structure (smiles),measurement,setting,value
"O=P1(N(CCCl)CCCl)NCCCO1 (stereo not drawn) [CP, cyclophosphamide monohydrate]",intratesticular testosterone levels,testosterone,no significant effects
same,serum testosterone levels,testosterone,no significant effects
same,mammary tumor size and weight,4T1 mammary cancer,smaller
same,germ cell apoptosis vs control,germ cells,significantly increased
same,STAT3 phosphorylation compared with control,[1],suppressed
same,germ cell apoptosis compared to control,"male germ cells; early-late stages of spermatogenesis, CP 200 mg/Kg IP",significantly increased germ cell apoptosis
same,germ cell apoptosis compared to control,"male germ cells; middle stages (V-VIII), CP 200 mg/Kg IP",significant increase in apoptosis
same,germ cell apoptosis compared to control,"male germ cells; testicular cross sections, HN 40 mg/Kg or CP 200 mg/Kg single IP",significantly increased germ cell apoptosis
same,ovarian follicles in representative sections,ovaries,"less secondary, but more atretic follicles"
